Results on 3 molecules are retold here after patent US20200038398A1, “COMBINATION THERAPY WITH GLUTAMINASE INHIBITORS” (Calithera Biosciences, Inc., priority 2017, published 2020).

Experiment [1] deals with HCC1569 (breast) cancer cell lines. Kind of experiment: Combination cell viability (CellTiter-Glo), CB-839 with palbociclib. The format is cell-based. To be noted: FIG. 1a; combination with CDK 4/6 inhibitor palbociclib, various concentrations of CB-839, 72 hours. On the procedure: (§1) Cells were treated with a dose titration of either CB-839, an anti-cancer agent, or a mixture thereof for 72 hours (for palbociclib or talazoparib) or 6 days (for niraparib) in growth media. At the end of the incubation, cell viability was measured using CellTiter-Glo as per manufacturer's protocol (Promega, Madison, Wis.). Cell proliferation for all compound treatments is represented with bar graphs, where luminescent output, Relative Light Units (RLU), correlates with viable cell number. Combination indices were calculated using CalcuSyn software (biosoft.com) and reported for individual mixtures of CB-839 and each agent.
For orientation: Cellular ATP, detected with luciferase, serves as a proxy for viable cell number.

In experiment [2] the test system is estrogen receptor positive (ER+) breast cancer. The description is as above. The format is cell-based. Particulars: FIG. 2a; combination with CDK 4/6 inhibitor palbociclib, various concentrations of CB-839, 72 hours. How it is done:
as §1

Experiment [3] deals with HCC1395 breast cancer cell lines. The experiment can be described thus: Combination cell viability (CellTiter-Glo), CB-839 with talazoparib. It is filed as cell-based. Particulars: FIG. 3b; combination with PARP inhibitor talazoparib, various concentrations of CB-839, 72 hours. How it is done: as §1
Experiment [4] concerns UWB1.289 ovarian cancer cell lines. The experiment can be described thus: Combination cell viability (CellTiter-Glo), CB-839 with niraparib. The format is cell-based. Particulars: FIG. 3a; combination with PARP inhibitor niraparib, various concentrations of CB-839, 6 days. On the procedure: as §1
Experiment [5] relates to HCC827 lung cancer cell lines. Kind of experiment: Combination cell viability (CellTiter-Glo), CB-839 with osimertinib. The format is cell-based. To be noted: FIG. 4a, various concentrations of CB-839, 72 hours. How it is done:
as §1, with “agent, osimertinib alone” for “agent,”, “of CB-839 and osimertinib” for “thereof”, “hours” for “hours (for palbociclib or talazoparib) or 6 days (for niraparib)”, “relative” for “viable”, “osimertinib.” for “each agent.”

Experiment [6] relates to H1975 lung cancer cell lines. The experiment is described as above. It is filed as cell-based. Particulars: FIG. 4b, various concentrations of CB-839, 72 hours. On the procedure: as §1, with “agent, osimertinib alone” for “agent,”, “of CB-839 and osimertinib” for “thereof”, “hours” for “hours (for palbociclib or talazoparib) or 6 days (for niraparib)”, “relative” for “viable”, “osimertinib.” for “each agent.”

The subject of experiment [7] is MCF-7 breast adenocarcinoma cells. The experiment can be described thus: MCF-7 xenograft, CB-839 and palbociclib. Particulars: combination CB-839 200 mg/kg PO BID and palbociclib orally once daily; scid/bg mice; FIG. 2b. It is filed as in vivo. On the procedure:
Female scid/bg mice were implanted subcutaneously with 17B-estradiol sustained release pellets on Day −1. The following day mice were implanted subcutaneously with 5×10^6 MCF-7 breast adenocarcinoma cells mixed 1:1 with matrigel. On Day 7 post-implant, mice were randomized into groups of n=10/group to receive the following: 1) Vehicle (25% hydroxypropyl-B-cyclodextrin) orally BID; 2) CB-839 at 200 mg/kg orally BID; 3) Palbociclib at 50 mg/kg orally once daily; or 4) CB-839 at 200 mg/kg PO BID and Palbociclib orally once daily. Tumors were measured with calipers three times per week and tumor volume calculated using the formula tumor volume (mm^3)=(a×b^2/2) where ‘b’ is the smallest diameter and ‘a’ is the largest perpendicular diameter. ****P<0.0001 (ANOVA) versus both monotherapies.

The test system of another experiment is P493-6 (myc “on”) cells. Kind of experiment: Cell Proliferation Assay. The format is cell-based. Particulars: 72 hrs incubation. How it is done:
P493-6 (myc “on”) cells were maintained in growth media (RPMI-1640, 10% FBS, 2 mM glutamine, 100 units/ml Penicillin and 100 μg/ml streptomycin) at 37° C. with 5% CO2. For compound assay, P493-6 cells were plated in 96-well V-bottom plates on the day of compound addition in 50 μl of growth media at a cell density of 200,000 cells/ml (10,000 cells/well). Compounds were serially diluted in 100% DMSO at 200-times the final concentration. Compounds were diluted 100-fold into growth media and then 50 μl of this mixture was added to cell plates making the final concentration of DMSO 0.5%. Cells were incubated with compound for 72 hrs at 37° C. with 5% CO2 and analyzed for antiproliferative effects either by Cell Titer Glo (Promega) or FACS analysis using the Viacount (Millipore) kit on the Guava instrument.

Where two headings read alike, the source gives them in different places. Some results are limits rather than exact numbers.

Regarding `O=C(Cc1cccc(OC(F)(F)F)c1)Nc1ccc(CCCCc2nnc(NC(=O)Cc3ccccn3)s2)nn1` [CB-839], the “synergy between CB-839 and palbociclib” value in experiment [1] and in experiment [2] was “synergy” in each case. In addition, the “synergy between CB-839 and talazoparib” value in experiment [3] was “synergy”. In addition, in experiment [4], the “synergy between CB-839 and niraparib” value was “synergy”. In addition, the “synergy between CB-839 and osimertinib” value in experiment [5] and in experiment [6] was “synergy” in each case. Further, the “tumor volume, P (ANOVA) versus both monotherapies” value in experiment [7] is less than 0.0001.

What is called IC50 is the midpoint of a concentration-inhibition curve. Consider `[2H]C([2H])(CCc1nnc(N)s1)C([2H])([2H])c1ccc(NC(=O)Cc2cccc(OC(F)(F)F)c2)nn1` [Compound 726], for which, in the experiment with P493-6 (myc “on”) cells (P493-6, read-out: Cell prolif P493 72h IC50), the IC50 was found to be 610 nM.

For the molecule `[2H]C([2H])(CCc1nnc(NC(=O)Cc2ccccn2)s1)C([2H])([2H])c1ccc(NC(=O)Cc2cccc(OC(F)(F)F)c2)nn1` [Compound 727], the IC50 with P493-6 (myc “on”) cells (read-out: Cell prolif P493 72h IC50) turned out to be 12 nM.
